From ChEMBL document CHEMBL4476883, “Hydroxy formamide derivatives and their use” (2017)

Experiments:
[1] = biological target: T1, Tolloid-like protein 2 (Homo sapiens, UniProt Q9Y6L7); assay: Inhibition of C-terminal Avi-6x-His epitope tagged and N-terminal human RAGE signal sequence tagged recombinant human TLL2 (26 to 1015 amino acids) expressed in CHOE1A cells incubated for 60 mins with promyostatin peptide substrate by FRET based assay; format: cell-based
T1 sequence (Q9Y6L7 whole entry): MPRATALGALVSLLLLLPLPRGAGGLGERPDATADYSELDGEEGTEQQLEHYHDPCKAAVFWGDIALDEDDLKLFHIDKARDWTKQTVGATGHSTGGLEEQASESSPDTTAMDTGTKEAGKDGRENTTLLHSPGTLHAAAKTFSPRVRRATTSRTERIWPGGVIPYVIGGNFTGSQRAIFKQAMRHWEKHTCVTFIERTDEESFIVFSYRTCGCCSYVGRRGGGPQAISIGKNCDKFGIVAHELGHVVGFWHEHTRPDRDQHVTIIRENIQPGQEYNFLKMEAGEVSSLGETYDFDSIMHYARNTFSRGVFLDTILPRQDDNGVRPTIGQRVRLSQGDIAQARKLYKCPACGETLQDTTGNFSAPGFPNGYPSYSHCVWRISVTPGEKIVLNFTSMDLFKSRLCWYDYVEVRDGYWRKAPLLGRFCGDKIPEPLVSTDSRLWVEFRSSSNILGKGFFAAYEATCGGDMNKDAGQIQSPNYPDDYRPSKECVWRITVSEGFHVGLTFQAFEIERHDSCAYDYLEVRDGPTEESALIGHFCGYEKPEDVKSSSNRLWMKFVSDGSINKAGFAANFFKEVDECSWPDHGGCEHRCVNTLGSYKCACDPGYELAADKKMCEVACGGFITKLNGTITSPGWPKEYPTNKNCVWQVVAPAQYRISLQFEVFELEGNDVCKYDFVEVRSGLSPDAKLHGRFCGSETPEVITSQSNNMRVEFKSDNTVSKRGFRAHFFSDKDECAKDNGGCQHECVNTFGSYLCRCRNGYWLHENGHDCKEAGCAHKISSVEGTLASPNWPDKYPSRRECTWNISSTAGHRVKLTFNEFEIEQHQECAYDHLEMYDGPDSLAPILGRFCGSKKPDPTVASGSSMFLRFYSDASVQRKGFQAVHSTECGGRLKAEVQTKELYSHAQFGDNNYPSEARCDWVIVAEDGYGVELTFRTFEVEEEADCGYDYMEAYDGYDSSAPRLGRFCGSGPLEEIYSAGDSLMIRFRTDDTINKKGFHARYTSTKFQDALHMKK

[2] = biological target: Tolloid-like protein 1 (Homo sapiens, UniProt O43897, I156V/N221S/V284A); assay: Inhibition of recombinant human TLL1 I156V/N221S/V284A mutant expressed in CHOE1A cells pre-incubated for 10 mins before promyostatin peptide substrate addition and measured after 60 mins by FRET based assay; format: cell-based
Tolloid-like protein 1, sequence (O43897 148-1013 I156V/N221S/V284A limits assumed): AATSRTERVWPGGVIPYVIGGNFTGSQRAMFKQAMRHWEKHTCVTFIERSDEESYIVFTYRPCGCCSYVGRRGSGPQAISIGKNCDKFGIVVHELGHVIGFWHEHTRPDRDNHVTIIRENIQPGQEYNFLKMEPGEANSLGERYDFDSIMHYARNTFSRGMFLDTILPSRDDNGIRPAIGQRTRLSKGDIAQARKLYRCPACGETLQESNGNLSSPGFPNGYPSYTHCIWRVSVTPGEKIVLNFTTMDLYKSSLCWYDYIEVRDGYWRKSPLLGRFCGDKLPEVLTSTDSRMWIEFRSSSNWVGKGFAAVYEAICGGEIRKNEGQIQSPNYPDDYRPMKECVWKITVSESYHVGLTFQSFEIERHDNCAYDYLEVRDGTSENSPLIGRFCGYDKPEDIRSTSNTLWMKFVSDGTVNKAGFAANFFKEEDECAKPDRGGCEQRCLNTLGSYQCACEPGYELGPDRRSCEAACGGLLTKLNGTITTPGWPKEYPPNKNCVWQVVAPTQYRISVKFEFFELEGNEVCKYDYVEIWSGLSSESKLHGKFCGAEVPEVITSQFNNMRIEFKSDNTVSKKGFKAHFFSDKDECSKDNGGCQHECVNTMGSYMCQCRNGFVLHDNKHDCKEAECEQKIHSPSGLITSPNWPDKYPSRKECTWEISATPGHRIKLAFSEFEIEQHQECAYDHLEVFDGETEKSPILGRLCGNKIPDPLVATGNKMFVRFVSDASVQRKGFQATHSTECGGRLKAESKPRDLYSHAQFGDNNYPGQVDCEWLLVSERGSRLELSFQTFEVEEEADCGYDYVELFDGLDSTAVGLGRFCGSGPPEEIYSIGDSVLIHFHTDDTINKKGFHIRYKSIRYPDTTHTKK

[3] = biological target: T2, Bone morphogenetic protein 1 (Homo sapiens, UniProt P13497); assay: Inhibition of C-terminal FLAG-6x-His epitope tagged and N-terminal human RAGE signal sequence tagged human BMP1 (23 to 721 amino acids) expressed in CHO-E1A cells pre-incubated for 10 mins before promyostatin peptide substrate addition and measured after 30 mins using 50 nM BMP1 by FRET based assay; format: cell-based
T2 sequence (P13497 whole entry): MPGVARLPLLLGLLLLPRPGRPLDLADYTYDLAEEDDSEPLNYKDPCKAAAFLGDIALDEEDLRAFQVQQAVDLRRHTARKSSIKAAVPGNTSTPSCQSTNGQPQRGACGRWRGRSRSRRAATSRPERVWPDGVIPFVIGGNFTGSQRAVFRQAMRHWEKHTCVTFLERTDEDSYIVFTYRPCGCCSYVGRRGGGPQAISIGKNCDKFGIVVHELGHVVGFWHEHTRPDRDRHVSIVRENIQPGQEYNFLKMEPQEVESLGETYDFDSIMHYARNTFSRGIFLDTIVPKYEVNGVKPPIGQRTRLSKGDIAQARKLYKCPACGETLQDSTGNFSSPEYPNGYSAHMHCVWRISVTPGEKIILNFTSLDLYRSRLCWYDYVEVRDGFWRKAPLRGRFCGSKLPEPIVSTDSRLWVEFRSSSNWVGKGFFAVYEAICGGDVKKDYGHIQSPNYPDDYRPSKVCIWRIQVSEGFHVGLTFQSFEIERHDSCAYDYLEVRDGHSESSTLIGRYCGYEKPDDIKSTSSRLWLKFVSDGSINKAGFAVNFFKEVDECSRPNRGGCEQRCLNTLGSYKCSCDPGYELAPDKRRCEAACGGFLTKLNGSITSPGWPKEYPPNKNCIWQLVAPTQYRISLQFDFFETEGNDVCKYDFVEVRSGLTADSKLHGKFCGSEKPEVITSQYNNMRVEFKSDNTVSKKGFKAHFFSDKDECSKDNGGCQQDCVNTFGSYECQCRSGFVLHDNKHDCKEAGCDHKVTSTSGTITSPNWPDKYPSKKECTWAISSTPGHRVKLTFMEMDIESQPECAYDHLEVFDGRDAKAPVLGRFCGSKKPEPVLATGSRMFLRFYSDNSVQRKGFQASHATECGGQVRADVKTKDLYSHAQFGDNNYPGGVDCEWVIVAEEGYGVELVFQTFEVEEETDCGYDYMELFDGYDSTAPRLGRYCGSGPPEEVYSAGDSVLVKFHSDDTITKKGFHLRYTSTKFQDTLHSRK

[4] = biological target: T2, Bone morphogenetic protein 1; assay: Inhibition of C-terminal FLAG-6x-His epitope tagged and N-terminal human RAGE signal sequence tagged human BMP1 (23 to 721 amino acids) expressed in CHO-E1A cells pre-incubated for 10 mins before promyostatin peptide substrate addition and measured after 60 mins using 0.5 nM BMP1 by FRET based assay; format: cell-based
[5] = Reduction in PICP levels in human cardiac fibroblasts incubated for 24 to 48 hrs by ELISA; format: functional

Row | IC50 [1] | IC50 [2] | IC50 [3] | IC50 [4] | Structure (SMILES) | IC50 [5]
1 | < 631 nM | < 398 nM | < 251 nM | < 126 nM | O=CN(O)C[C@@H](CC1CCCC1)C(=O)NCNC(=O)c1cccc(-c2cccc(C(F)(F)F)c2)c1 | < 20000 nM
2 | < 631 nM | < 398 nM | < 251 nM | < 126 nM | CCCCC[C@H](CN(O)C=O)C(=O)NCNC(=O)c1cccc(-c2cccc(OC)c2)c1 | < 20000 nM
3 | < 631 nM | < 398 nM | < 251 nM | < 126 nM | COc1cccc(-c2cccc(C(=O)NCNC(=O)[C@H](CC3CCCC3)CN(O)C=O)c2)c1 | < 20000 nM
4 | < 631 nM | < 398 nM | < 251 nM | < 126 nM | CCOc1cccc(-c2cccc(C(=O)NCNC(=O)[C@H](CC3CCCC3)CN(O)C=O)c2)c1 | < 20000 nM
5 | < 631 nM | < 398 nM | < 251 nM | < 126 nM | CCCCC[C@H](CN(O)C=O)C(=O)NCNC(=O)c1cccc(-c2ncc(C)o2)c1 | < 20000 nM
6 | < 631 nM | < 398 nM | < 251 nM | < 126 nM | CCc1cccc(-c2cccc(C(=O)NCNC(=O)[C@H](CC3CCCC3)CN(O)C=O)c2)c1 | < 20000 nM
7 | < 631 nM | < 398 nM | < 251 nM | < 126 nM | CCCCC[C@@H](C(=O)NCNC(=O)c1cccc(-c2ccc(C(=O)O)cc2C)n1)[C@@H](CC)N(O)C=O | < 20000 nM
8 | < 631 nM | < 398 nM | < 251 nM | < 126 nM | CCCCC[C@H](CN(O)C=O)C(=O)NCNC(=O)c1cccc(-c2cnc(C)o2)c1 | < 20000 nM
9 | < 631 nM | < 398 nM | < 251 nM | < 126 nM | CCCCC[C@H](CN(O)C=O)C(=O)NCNC(=O)c1cccc(-c2nnn[nH]2)c1 | < 20000 nM
10 | < 631 nM | < 398 nM | < 251 nM | < 126 nM | CCCCC[C@H](CN(O)C=O)C(=O)NCNC(=O)c1cccc(-c2nc(C)c(C)o2)c1 | < 20000 nM
11 | < 631 nM | < 398 nM | < 251 nM | < 126 nM | O=CN(O)C[C@@H](CC1CCCC1)C(=O)NCNC(=O)c1cccc(-c2cccc(OC(F)(F)F)c2)c1 | < 20000 nM
12 | < 631 nM | < 398 nM | < 251 nM | < 126 nM | CCCCC[C@@H](C(=O)NCNC(=O)c1cccc(-c2cc(OCC)cc(C(=O)O)c2)c1)[C@@H](CC)N(O)C=O | < 20000 nM
13 | < 631 nM | < 398 nM | < 251 nM | < 126 nM | COc1cc(OC)cc(-c2cccc(C(=O)NCNC(=O)[C@H](CC3CCCC3)CN(O)C=O)c2)c1 | < 20000 nM
14 | < 631 nM | < 398 nM | < 251 nM | < 126 nM | CCCCC[C@@H](C(=O)NCNC(=O)c1cccc(-c2cccc(OC)c2F)c1F)[C@@H](CC)N(O)C=O | < 20000 nM
15 | < 631 nM | < 398 nM | < 251 nM | < 126 nM | O=CN(O)C[C@@H](CC1CCCC1)C(=O)NCNC(=O)c1cccc(Oc2ccccc2)c1 | < 20000 nM

Continued, compound first:

Row | Structure (SMILES) | IC50 [1] | IC50 [2] | IC50 [3] | IC50 [4] | IC50 [5]
16 | CCCCC[C@H](CN(O)C=O)C(=O)NCNC(=O)c1cccc(-c2cc(OC)nnc2OC)c1 | < 631 nM | < 398 nM | < 251 nM | < 126 nM | < 20000 nM
17 | CCCCC[C@H](CN(O)C=O)C(=O)NCNC(=O)c1cccc(-c2cccc(C(C)C)c2)c1 | < 631 nM | < 398 nM | < 251 nM | < 126 nM | < 20000 nM
18 | CCCCC[C@H](CN(O)C=O)C(=O)NCNC(=O)c1cccc(-c2cc(OC)ccc2OC)c1 | < 631 nM | < 398 nM | < 251 nM | < 126 nM | < 20000 nM
19 | CCCCC[C@H](CN(O)C=O)C(=O)NCNC(=O)c1cccc(-c2cc(OC)ccc2F)c1F | < 631 nM | < 398 nM | < 251 nM | < 126 nM | < 20000 nM
20 | CCCCC[C@H](CN(O)C=O)C(=O)NCNC(=O)c1cccc(-c2cccc(F)c2)c1 | < 631 nM | < 398 nM | < 251 nM | < 126 nM | < 20000 nM
21 | O=CN(O)C[C@@H](CC1CCCC1)C(=O)NCNC(=O)c1cccc(-c2ccc(C(F)(F)F)cc2)c1 | < 631 nM | < 398 nM | < 251 nM | < 126 nM | < 20000 nM
22 | CCCCC[C@@H](C(=O)NCNC(=O)c1cccc(-c2cc(OCC)cc(C(=O)N[C@@H](CC(=O)O)C(=O)O)c2)c1)[C@@H](CC)N(O)C=O | < 631 nM | < 398 nM | < 251 nM | < 126 nM | < 20000 nM
23 | COc1ccccc1-c1cccc(C(=O)NCNC(=O)[C@H](CC2CCCC2)CN(O)C=O)c1 | < 631 nM | < 398 nM | < 251 nM | < 126 nM | < 20000 nM
24 | CCCCC[C@H](CN(O)C=O)C(=O)NCNC(=O)c1cccc(-c2ccnc(OC)n2)c1 | < 631 nM | < 398 nM | < 251 nM | < 126 nM | < 20000 nM
25 | COc1cc(-c2cccc(C(=O)NCNC(=O)[C@H](CCc3ccccc3)CN(O)C=O)c2)c(OC)nn1 | < 631 nM | < 398 nM | < 251 nM | < 126 nM | < 20000 nM
26 | O=CN(O)C[C@@H](CC1CCCC1)C(=O)NCNC(=O)c1cccc(-c2ccccc2)c1 | < 631 nM | < 398 nM | < 251 nM | < 126 nM | < 20000 nM
27 | CCCCC[C@H](CN(O)C=O)C(=O)NCNC(=O)c1cccc(-n2cc(C)cn2)c1 | < 631 nM | < 398 nM | < 251 nM | < 126 nM | < 20000 nM
28 | O=CN(O)C[C@@H](CC1CCCC1)C(=O)NCNC(=O)c1cccc(-c2cccc(O)c2)c1 | < 631 nM | < 398 nM | < 251 nM | < 126 nM | < 20000 nM
29 | N#Cc1cccc(-c2cccc(C(=O)NCNC(=O)[C@H](CC3CCCC3)CN(O)C=O)c2)c1 | < 631 nM | < 398 nM | < 251 nM | < 126 nM | < 20000 nM
30 | O=CN(O)C[C@@H](CCc1ccccc1)C(=O)NCNC(=O)c1cccc(-c2cccc(B(O)O)c2)c1 | < 631 nM | < 398 nM | < 251 nM | < 126 nM | < 20000 nM
